Results published in ChEMBL document CHEMBL4765225, “A peptide inhibitor of antibody-dependent cell-mediated cytotoxicity against EGFR/folate receptor-alpha double positive cells” (Medchemcomm, 2018).
The source made the active and inactive calls. The calls are words filed in the database; no cut-off is given here.

Columns and labels:
A549 = assay: Induction of EGFR antibody accumulation on human A549 cell surface assessed as ternary complex formation by fluorescence microscopy; format: functional, tissue-based
IGROV-1 [1] = assay: Induction of CD20 antibody accumulation on human IGROV1 cell surface assessed as ternary complex formation by fluorescence microscopy; format: functional
IGROV-1 [2] = assay: Induction of CD20 antibody recruitment on human IGROV1 cell surface assessed as ternary complex formation by fluorescence microscopy; format: functional
IGROV-1 [3] = assay: Induction of EGFR antibody accumulation on human IGROV1 cell surface assessed as ternary complex formation by fluorescence microscopy; format: functional
IGROV-1 [4] = assay: Induction of CD20 antibody recruitment on human IGROV1 cell surface by flow cytometry analysis; format: functional, tissue-based
[5] = Inhibition of antibody-dependent cell-mediated cytotoxicity in human IGROV1 cells incubated for 10 mins followed by addition of KHYG-1/FC-gamma-3A-158V by LDH assay; format: functional, cell-based; settings: IGROV-1, 10 min
IGROV-1 [6] = assay: Induction of CD20 antibody accumulation on human IGROV1 cell surface assessed as ternary complex formation in presence of excess folate by fluorescence microscopy; format: functional, tissue-based
IGROV-1 [7] = assay: Induction of EGFR antibody accumulation on human IGROV1 cell surface assessed as ternary complex formation in presence of excess folate by fluorescence microscopy; format: functional, tissue-based

## CC(C)C[C@@H]1NC(=O)[C@H](Cc2c[nH]cn2)NC(=O)[C@H](Cc2c[nH]c3ccccc23)NC(=O)[C@H](C)NC(=O)[C@@H](NC(=O)[C@H](CC(=O)O)NC(=O)CCOCCOCCOCCOCCOCCOCCNC(=O)C(CCCCNC(=O)c2ccc(-c3c4ccc(=[N+](C)C)cc-4oc4cc(N(C)C)ccc34)c(C(=O)[O-])c2)NC(=O)CCC(NC(=O)c2ccc(NCc3cnc4[nH]c(N)nc(=O)c4n3)cc2)C(=O)O)CSSC[C@@H](C(=O)N[C@H](C(N)=O)[C@@H](C)O)NC(=O)[C@H](Cc2c[nH]c3ccccc23)NC(=O)[C@H](C(C)C)NC(=O)[C@H](CC(C)C)NC(=O)[C@H](CCC(=O)O)NC(=O)CNC1=O (some centres undefined)
A549
  Activity: inactive
IGROV-1 [1]
  Activity: Active
IGROV-1 [2]
  Activity: Active

## CC(C)C[C@@H]1NC(=O)[C@H](Cc2c[nH]cn2)NC(=O)[C@H](Cc2c[nH]c3ccccc23)NC(=O)[C@H](C)NC(=O)[C@@H](NC(=O)[C@H](CC(=O)O)NC(=O)CCOCCOCCOCCOCCOCCOCCNC(=O)CCC(NC(=O)c2ccc(NCc3cnc4[nH]c(N)nc(=O)c4n3)cc2)C(=O)O)CSSC[C@@H](C(=O)N[C@H](C(N)=O)[C@@H](C)O)NC(=O)[C@H](Cc2c[nH]c3ccccc23)NC(=O)[C@H](C(C)C)NC(=O)[C@H](CC(C)C)NC(=O)[C@H](CCC(=O)O)NC(=O)CNC1=O (some centres undefined)
IGROV-1 [3]
  Activity: Active
A549
  Activity: inactive
IGROV-1 [4]
  Activity: Active
[5]
  IC50: 0.4 nM
IGROV-1 [6]
  Activity: inactive
IGROV-1 [7]
  Activity: inactive
